Data reported in PubChem BioAssay (NCI).
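Cells were grown in 96-well plates and exposed to each compound for 48 hours at five concentrations; endpoints were interpolated linearly between bracketing concentrations, or set to the highest concentration if not reached. The concentration for 50% growth inhibition is given as GI50. TGI marks complete inhibition of growth.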

How the values were obtained:
Assay in all cases: growth of human tumour cells (NCI), 48 h
MOLT-4 leukemia = tested on: MOLT-4 leukemia
RXF 393 renal = tested on: RXF 393 renal
RPMI-8226 leukemia = tested on: RPMI-8226 leukemia
SK-MEL-2 melanoma = tested on: SK-MEL-2 melanoma
A498 renal = tested on: A498 renal
NCI-H226 lung = tested on: NCI-H226 lung
MDA-MB-231 breast = tested on: MDA-MB-231 breast
SF-268 CNS = tested on: SF-268 CNS
A549 NSCLC = tested on: A549 NSCLC
CCRF-CEM leukemia = tested on: CCRF-CEM leukemia
LOX IMVI melanoma = tested on: LOX IMVI melanoma
HCT-15 colon = tested on: HCT-15 colon
BT-549 breast = tested on: BT-549 breast
SR leukemia = tested on: SR leukemia
SN12C renal = tested on: SN12C renal
KM12 colon = tested on: KM12 colon
M14 melanoma = tested on: M14 melanoma
NCI/ADR-RES ovarian = tested on: NCI/ADR-RES ovarian
MDA-MB-435 = tested on: MDA-MB-435
SNB-75 CNS = tested on: SNB-75 CNS
IGROV1 ovarian = tested on: IGROV1 ovarian
PC-3 prostate = tested on: PC-3 prostate
EKVX NSCLC = tested on: EKVX NSCLC
K-562 leukemia = tested on: K-562 leukemia
UACC-257 melanoma = tested on: UACC-257 melanoma
DU-145 prostate = tested on: DU-145 prostate
MALME-3M melanoma = tested on: MALME-3M melanoma
HCC-2998 colon = tested on: HCC-2998 colon
NCI-H522 lung = tested on: NCI-H522 lung
SK-MEL-5 melanoma = tested on: SK-MEL-5 melanoma
U251 CNS = tested on: U251 CNS
SW-620 colon = tested on: SW-620 colon
ACHN renal = tested on: ACHN renal
OVCAR-3 ovarian = tested on: OVCAR-3 ovarian
UACC-62 melanoma = tested on: UACC-62 melanoma
MCF7 breast = tested on: MCF7 breast
SNB-19 CNS = tested on: SNB-19 CNS
T-47D breast = tested on: T-47D breast
SK-OV-3 ovarian = tested on: SK-OV-3 ovarian
HOP-62 NSCLC = tested on: HOP-62 NSCLC
COLO 205 colon = tested on: COLO 205 colon
CAKI-1 renal = tested on: CAKI-1 renal
OVCAR-8 ovarian = tested on: OVCAR-8 ovarian
OVCAR-5 ovarian = tested on: OVCAR-5 ovarian
HS 578T breast = tested on: HS 578T breast
HOP-92 NSCLC = tested on: HOP-92 NSCLC
NCI-H460 lung = tested on: NCI-H460 lung
HT29 colon = tested on: HT29 colon
SF-539 CNS = tested on: SF-539 CNS
UO-31 renal = tested on: UO-31 renal
SF-295 CNS = tested on: SF-295 CNS
786-0 renal = tested on: 786-0 renal
HCT-116 colon = tested on: HCT-116 colon
TK-10 renal = tested on: TK-10 renal
SK-MEL-28 melanoma = tested on: SK-MEL-28 melanoma
HL-60(TB) leukemia = tested on: HL-60(TB) leukemia
OVCAR-4 ovarian = tested on: OVCAR-4 ovarian
NCI-H23 lung = tested on: NCI-H23 lung

Compound `O=C(Nc1ccc(-n2ccc3c(NC(=O)c4ccccc4)nccc32)cc1)c1ccc(Cl)c(C(F)(F)F)c1` has a GI50 (MOLT-4 leukemia) of 0.351 µM, a TGI (MOLT-4 leukemia) of over 20.7 µM and a GI50 (RXF 393 renal) of 1.01 µM. For the same compound, the TGI (RXF 393 renal) was 9.64 µM, the GI50 (RPMI-8226 leukemia) was 0.231 µM and the TGI (RPMI-8226 leukemia) was 5.54 µM. It also gave a GI50 (SK-MEL-2 melanoma) of 6.16 µM, a TGI (SK-MEL-2 melanoma) of 31.6 µM and a GI50 (A498 renal) of 6.1 µM. The TGI (A498 renal) was 33.1 µM, the GI50 (NCI-H226 lung) was 6.17 µM and the TGI (NCI-H226 lung) was over 50 µM. The GI50 (MDA-MB-231 breast) was 5.09 µM, the TGI (MDA-MB-231 breast) was 15 µM and the GI50 (SF-268 CNS) was 1.08 µM. For the same compound, the TGI (SF-268 CNS) was 11.9 µM, the GI50 (A549 NSCLC) was 0.318 µM and the TGI (A549 NSCLC) was 8.45 µM. It also gave a GI50 (CCRF-CEM leukemia) of 0.128 µM, a TGI (CCRF-CEM leukemia) of 2.17 µM and a GI50 (LOX IMVI melanoma) of 0.112 µM. It also gave a TGI (LOX IMVI melanoma) of 3.29 µM, a GI50 (HCT-15 colon) of 0.0275 µM and a TGI (HCT-15 colon) of 2.83 µM. The GI50 (BT-549 breast) was 6.5 µM, the TGI (BT-549 breast) was over 50 µM and the GI50 (SR leukemia) was 0.0545 µM. The TGI (SR leukemia) was over 12.7 µM, the GI50 (SN12C renal) was 2.25 µM and the TGI (SN12C renal) was 18.3 µM. The GI50 (KM12 colon) was 0.351 µM, the TGI (KM12 colon) was 6.26 µM and the GI50 (M14 melanoma) was 1.92 µM. For the same compound, the TGI (M14 melanoma) was 10.7 µM, the GI50 (NCI/ADR-RES ovarian) was 0.96 µM and the TGI (NCI/ADR-RES ovarian) was 15.2 µM. The GI50 (MDA-MB-435) was 0.674 µM, the TGI (MDA-MB-435) was 6.52 µM and the GI50 (SNB-75 CNS) was 0.625 µM. It also gave a TGI (SNB-75 CNS) of 16.5 µM, a GI50 (IGROV1 ovarian) of 1.55 µM and a TGI (IGROV1 ovarian) of 15.3 µM. The GI50 (PC-3 prostate) was 2.56 µM, the TGI (PC-3 prostate) was 24.8 µM and the GI50 (EKVX NSCLC) was 9.59 µM. It also gave a TGI (EKVX NSCLC) of over 50 µM, a GI50 (K-562 leukemia) of 0.213 µM and a TGI (K-562 leukemia) of over 17.2 µM. For the same compound, the GI50 (UACC-257 melanoma) was 6.73 µM, the TGI (UACC-257 melanoma) was 27.2 µM and the GI50 (DU-145 prostate) was 2.12 µM. For the same compound, the TGI (DU-145 prostate) was 10.7 µM, the GI50 (MALME-3M melanoma) was 4.13 µM and the TGI (MALME-3M melanoma) was 14.7 µM. The GI50 (HCC-2998 colon) was 1.6 µM, the TGI (HCC-2998 colon) was 10.4 µM and the GI50 (NCI-H522 lung) was 0.811 µM. The TGI (NCI-H522 lung) was 9.59 µM, the GI50 (SK-MEL-5 melanoma) was 0.132 µM and the TGI (SK-MEL-5 melanoma) was 8.67 µM. It also gave a GI50 (U251 CNS) of 0.095 µM, a TGI (U251 CNS) of 5.3 µM and a GI50 (SW-620 colon) of 0.335 µM. The TGI (SW-620 colon) was 1.44 µM, the GI50 (ACHN renal) was 0.487 µM and the TGI (ACHN renal) was 15.4 µM. The GI50 (OVCAR-3 ovarian) was 1.35 µM, the TGI (OVCAR-3 ovarian) was 10 µM and the GI50 (UACC-62 melanoma) was 0.576 µM. It also gave a TGI (UACC-62 melanoma) of 9.79 µM, a GI50 (MCF7 breast) of 0.288 µM and a TGI (MCF7 breast) of 1.24 µM. For the same compound, the GI50 (SNB-19 CNS) was 1.18 µM, the TGI (SNB-19 CNS) was 13.1 µM and the GI50 (T-47D breast) was 6.2 µM. It also gave a TGI (T-47D breast) of 20.4 µM, a GI50 (SK-OV-3 ovarian) of 1.18 µM and a TGI (SK-OV-3 ovarian) of 20.7 µM. The GI50 (HOP-62 NSCLC) was 3.4 µM, the TGI (HOP-62 NSCLC) was 13.2 µM and the GI50 (COLO 205 colon) was 1.83 µM. For the same compound, the TGI (COLO 205 colon) was 11 µM, the GI50 (CAKI-1 renal) was 0.305 µM and the TGI (CAKI-1 renal) was 11.8 µM. It also gave a GI50 (OVCAR-8 ovarian) of 0.528 µM, a TGI (OVCAR-8 ovarian) of 15.9 µM and a GI50 (OVCAR-5 ovarian) of 3.84 µM. It also gave a TGI (OVCAR-5 ovarian) of 27.3 µM, a GI50 (HS 578T breast) of 4.88 µM and a TGI (HS 578T breast) of 20 µM. For the same compound, the GI50 (HOP-92 NSCLC) was 3.42 µM, the TGI (HOP-92 NSCLC) was over 42.2 µM and the GI50 (NCI-H460 lung) was 0.0442 µM. The TGI (NCI-H460 lung) was 1.2 µM, the GI50 (HT29 colon) was 0.183 µM and the TGI (HT29 colon) was 6.31 µM. For the same compound, the GI50 (SF-539 CNS) was 0.273 µM, the TGI (SF-539 CNS) was 14.4 µM and the GI50 (UO-31 renal) was 2.86 µM. It also gave a TGI (UO-31 renal) of over 50 µM, a GI50 (SF-295 CNS) of 0.293 µM and a TGI (SF-295 CNS) of 10 µM. The GI50 (786-0 renal) was 0.606 µM, the TGI (786-0 renal) was 9.93 µM and the GI50 (HCT-116 colon) was 0.0824 µM. For the same compound, the TGI (HCT-116 colon) was 0.989 µM, the GI50 (TK-10 renal) was 5.38 µM and the TGI (TK-10 renal) was 13.5 µM. For the same compound, the GI50 (SK-MEL-28 melanoma) was 4.99 µM, the TGI (SK-MEL-28 melanoma) was 14.1 µM and the GI50 (HL-60(TB) leukemia) was 0.687 µM. It also gave a TGI (HL-60(TB) leukemia) of 9.78 µM, a GI50 (OVCAR-4 ovarian) of 1.61 µM and a TGI (OVCAR-4 ovarian) of 8.55 µM. For the same compound, the GI50 (NCI-H23 lung) was 7.16 µM and the TGI (NCI-H23 lung) was over 32.9 µM.
